# Laboratory results published in patent publication US20140194479A1, “COMPOSITIONS AND METHODS FOR TREATING MOOD DISORDERS” (priority 2011, published 2014).
# How the values were obtained:
# [1] = system: 5-HT/5-HIAA levels in the forebrain neocortex; details: 300 mg/kg twice per day, within 5 days; Gurevich et al., 2002; cited from earlier work
# [2] = system: histone H3 and H4 proteins in the forebrain neocortex; assay: Western blotting of histone proteins, forebrain neocortex of SFR Balb/c mice; assay type: in vivo
# Experimental: (§1) Forebrain neocortical tissue was dissected in phosphate-buffered saline supplemented with protease inhibitors and homogenized in 0.5% SDS, protease inhibitor cocktail (Complete Mini, Roche, Germany), 10 mM EDTA, and 10 mM Tris HCl (pH 8.0). Protein concentration was measured using the NanoDrop instrument (Thermo Scientific, Wilmington, Del.).
# (§2) For loading controls, an anti-GAPDH antibody was used (Abcam, Cambridge, Mass.; 1:100,000). After incubation with primary antibody, membranes were incubated with a horseradish-peroxidase-conjugated secondary antibody (anti-rabbit IgG-HRP; Sigma, St. Louis, Mo.; dilution: 1:5,000) for 1 hour at room temperature. SuperSignal West Dura (Thermo Scientific, Waltham, Mass.) was used to visualize bound antigen. Optical densities (OD) of histone protein signals were determined using NIH ImageJ software. ODs were normalized to corresponding ODs obtained for GAPDH.
# [3] = system: histone H3 and H4 proteins in the forebrain neocortex; assay: Western blotting of histone proteins, forebrain neocortex of IMS Balb/c mice; assay type: in vivo
# Experimental: as §1, §2
# SFR Balb/c mice [4] = assay: Elevated Plus Maze (EPM), SFR Balb/c mice; assay type: in vivo; details: for time spent in the open arms of the EPM: SFR Balb/c treated during adolescence (P35 to P60), vs non-treated controls
# SFR Balb/c mice [5] = assay: Forced Swim Test (FST), SFR (non-stressed) Balb/c mice; assay type: in vivo; details: for immobility in the FST: SFR Balb/c treated during adolescence (P35 to P60), vs SFR controls
# Experimental: (§4) For chronic drug treatment, drugs were administered via the drinking water. […] Suberoylanidide hydroxamic acid (SAHA) was dissolved in DMSO and subsequently diluted about 100 fold in water containing 0.2% sucrose. Mice consumed about 200 mg/kg/day of SAHA (Butler et al., 2000) and their controls received drinking water supplemented with the same amount of DMSO and sucrose that SAHA-treated animals received. […] In these experiments, mice received a single intraperitoneal injection of SAHA (100 mg/kg) at P35, followed by SAHA treatment via the drinking water for the next 3 days.
# Three days later, mice were tested in a modified version of Forced Swim Test (FST), i.e., a 6 minute exposure on day 1 followed by another 6 minute exposure on day 2.
# [6] = system: histone H3 and H4 proteins in the forebrain neocortex; assay: Western blotting of histone proteins, forebrain neocortex of C57BI/6 mice; assay type: in vivo; details: C57BI/6 mice at P60, IMS-fluoxetine, OD normalized to GAPDH, mean ± sem
# Experimental: as §1, §2
# [7] = system: aCH4K12 at BDNF promotors; assay: ChIP/real-time PCR, aCH4K12 enrichment at BDNF promotors; assay type: in vivo, Balb/c mice; details: non-stressed Balb/c treated P35 to P59; FIG. 15B
# Source text: (§3) Data in (FIG. 15A) are mean±sem of 8 animals per group. Data in (FIG. 15B) and (FIG. 15C) were obtained from ChIP/real-time PCR measures (mean±sem; n=4/group) using antibodies directed against aCH4K12 (FIG. 15B) and Pol II (FIG. 15C). […] Data in (FIG. 15D) are from RT-real-time PCR measures of BDNF mRNA levels (mean±sem, n=5/group). […] All data were compared by ANOVA and significant differences between groups were resolved post hoc using Tukey Kramer multiple comparisons as indicated. In all studies, male and female mice were used.
# [8] = system: RNA Polymerase II (Pol II) at BDNF promotors; assay: ChIP/real-time PCR, Pol II enrichment at BDNF promotors; assay type: in vivo, Balb/c mice; details: non-stressed Balb/c treated P35 to P59; FIG. 15C
# Source text: as §3
# SFR Balb/c mice [9] = details: adolescent treatment; Bhansali et al., 2007; cited from earlier work
# HDAC mRNA = assay: Real-time RT-PCR of HDAC mRNA, forebrain neocortex of IMS Balb/c mice
# Source text: (§5) Briefly, offspring of first-time mothers were separated from their dam daily for three hours (from 1:00 to 4:00 P.M.) from postnatal age day 2 (P2) until P15. Control animals were standard facility-reared (SFR) pups of first-time mothers. Housing and husbandry conditions were identical for IMS and SFR mice. Pups were weaned at P28 and group housed by sex (five animals randomly selected from at least five different litters). Since this study involved behavioral tests of emotive phenotypes that are sensitive to differences in the estrus cycle of females, all studies disclosed below were conducted on male mice.
# as §4
# HDAC3 [10] = biological target: T1, HDAC3 (Homo sapiens, UniProt O15379); details: read-out: IC50 HDAC 3; cited from earlier work
# Target sequence in this assay (O15379 whole entry, species assumed): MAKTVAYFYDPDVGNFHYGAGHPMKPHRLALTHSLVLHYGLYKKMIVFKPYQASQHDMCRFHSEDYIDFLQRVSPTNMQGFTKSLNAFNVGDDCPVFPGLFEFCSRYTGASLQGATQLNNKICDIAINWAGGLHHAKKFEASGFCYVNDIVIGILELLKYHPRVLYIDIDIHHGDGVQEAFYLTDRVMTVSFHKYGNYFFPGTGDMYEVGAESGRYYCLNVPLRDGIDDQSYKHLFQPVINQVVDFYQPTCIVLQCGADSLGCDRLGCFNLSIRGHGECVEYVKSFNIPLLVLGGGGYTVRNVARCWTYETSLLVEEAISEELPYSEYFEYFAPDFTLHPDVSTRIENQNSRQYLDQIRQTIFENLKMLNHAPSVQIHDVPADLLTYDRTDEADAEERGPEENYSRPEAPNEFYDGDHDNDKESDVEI
# Target sequence in this assay (Q9Y618 395-489 partner limits assumed, species assumed): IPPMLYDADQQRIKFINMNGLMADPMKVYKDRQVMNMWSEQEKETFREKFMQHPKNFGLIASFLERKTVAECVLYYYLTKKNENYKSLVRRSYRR
# HDAC1 = HDAC1 (Homo sapiens, UniProt Q13547); details: at concentration below 10^−4M; Ito et al., 2002; cited from earlier work
# Chain of HDAC1 (Q13547 whole entry, species assumed): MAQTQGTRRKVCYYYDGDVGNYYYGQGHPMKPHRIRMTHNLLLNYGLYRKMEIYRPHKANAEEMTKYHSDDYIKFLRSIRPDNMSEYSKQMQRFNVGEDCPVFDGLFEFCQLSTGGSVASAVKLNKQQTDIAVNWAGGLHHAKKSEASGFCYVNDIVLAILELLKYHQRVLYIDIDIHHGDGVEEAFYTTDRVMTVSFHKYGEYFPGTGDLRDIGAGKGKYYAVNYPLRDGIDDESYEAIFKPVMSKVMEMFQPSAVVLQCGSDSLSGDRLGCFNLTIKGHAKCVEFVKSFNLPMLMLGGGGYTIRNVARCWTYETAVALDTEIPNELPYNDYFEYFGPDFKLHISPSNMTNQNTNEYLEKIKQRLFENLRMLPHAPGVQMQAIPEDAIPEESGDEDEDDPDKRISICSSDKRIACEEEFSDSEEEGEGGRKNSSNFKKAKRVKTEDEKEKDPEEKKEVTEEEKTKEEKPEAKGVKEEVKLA
# HDAC3 [11] = biological target: T1, HDAC3; details: at concentration below 10^−4M; Ito et al., 2002; cited from earlier work
# Target sequence in this assay (O15379 whole entry, species assumed): as the sequence (O15379 whole entry, species assumed) above
# adenosine receptors = details: at concentration below 10^−4M; Ito et al., 2002; cited from earlier work
# phosphodiesterases = details: at concentration below 10^−4M; Ito et al., 2002; cited from earlier work
# IMS Balb/c mice [12] = assay: Forced Swim Test (FST), IMS Balb/c mice
# Source text: as §5, §4
# Their times spent in open arms and the number of arm crossings was recorded. […]
# IMS Balb/c mice [13] = assay: Elevated Plus Maze (EPM), IMS Balb/c mice
# Source text: as §5, §4
# Their times spent in open arms and the number of arm crossings was recorded. Three days later, mice were tested in a modified version of Forced Swim Test (FST), i.e., a 6 minute exposure on day 1 followed by another 6 minute exposure on day 2.
# [14] = Plasma concentration of theophylline under drinking water treatment; details: over 24 hours of theophylline-supplemented (10^−4M) drinking water consumption
# Experimental: as §4
# [15] = system: extracellular 5-HT levels; details: McEwen et al., 2010, Mennini et al., 1987; cited from earlier work
# [16] = SFR Balb/c, adolescent treatment
# [17] = IMS Balb/c treated between P21 and P35
# [18] = IMS Balb/c, adolescent fluoxetine vs non-treated IMS
# [19] = IMS Balb/c, adolescent treatment, compared to non-treated IMS Balb/c mice
# [20] = IMS Balb/c, fluoxetine during adolescence, OD normalized to GAPDH, mean ± sem
# [21] = IMS Balb/c, treatment P35 to P60, vs non-treated IMS
# [22] = SFR Balb/c, fluoxetine alone or with SAHA, OD normalized to GAPDH, mean ± sem
# [23] = IMS-fluoxetine Balb/c at P60, mean±sem
structure (smiles),measurement,setting,value
"N[C@@H](Cc1ccc(Cl)cc1)C(=O)O (racemic) [pCPA, para-chlorophenylalanine]",reduction of 5-HT/5-HIAA levels in the forebrain neocortex,[1],about 80%
Nc1ccccc1NC(=O)c1ccc(CNC(=O)OCc2cccnc2)cc1 [MS-275],effect on acetylated H4K5 expression,[2]; [16],increased
same,effect on acetylated H4K8 expression,[2]; [16],increased
same,effect on acetylated H4K12 expression,[2]; [16],increased
"O=C(CCCCCCC(=O)Nc1ccccc1)NO [SAHA, suberoylanilide hydroxamic acid]",effect on development of the adult epigenetic phenotype,[3]; [17],did not prevent
same,effect on the decreased acetylation of histone H4 proteins,[3]; [17],prevented
same,percentage of open arm entries in the EPM,SFR Balb/c mice [4]; SFR Balb/c treated during adolescence,lowest percentage
same,time spent in the open arms of the EPM,SFR Balb/c mice [4],significantly less time
same,immobility in the FST,SFR Balb/c mice [5],significantly increased
CNCCC(Oc1ccc(C(F)(F)F)cc1)c1ccccc1 (centres unmarked) [fluoxetine],increase in acetylated H3K9 protein,[3]; [18],55%
same,increase in acetylated H4K12 protein,[3]; [18],230%
same,increase in total histone H3 protein expression,[3]; [18],60%
same,increase in total histone H4 protein expression,[3]; [18],13%
same,H3K4me3,[3]; [19],Increased
same,acH3K9,[3]; [19],Increased
same,acH4K5,[3]; [19],Increased
same,acH4K12,[3]; [19],Increased
same,acK4K8,[3]; [19],Increased
same,H3K4me3 expression,[3]; [20],0.94 ± 0.07
same,H3K9me2 expression,[3]; [20],0.93 ± 0.03
same,H3 expression,[3]; [20],1.31 ± 0.03
same,acH3K9 expression,[3]; [20],1.21 ± 0.02
same,acH4K5 expression,[3]; [20],0.94 ± 0.02
same,acH4K8 expression,[3]; [20],1.51 ± 0.06
same,acH4K12 expression,[3]; [20],1.16 ± 0.04
same,acH4K16 expression,[3]; [20],1.04 ± 0.04
same,H4 expression,"[3]; IMS Balb/c, fluoxetine during adolescence, OD on Western blots normalized to GAPDH, mean ± sem, n = 5",0.97 ± 0.05
same,effect on acetylated H4K12 protein expression,[3]; [21],significantly increased
same,effect on acetylated histone H3K9 expression,[3]; [21],significantly increased
same,effect on acetylated histone H4K8 expression,[3]; [21],significantly increased
same,effect on dimethylated histone H3 protein expression,[3]; [21],did not change
same,effect on total H3 protein expression,[3]; [21],increased
same,effect on total H4 protein expression,[3]; [21],increased
same,effect on trimethylated histone H3 protein expression,[3]; [21],increased
same,H3K4me3 expression,[2]; [22],1.12 ± 0.02
same,H3K9me2 expression,[2]; [22],1.08 ± 0.04
same,H3 expression,[2]; [22],0.96 ± 0.01
same,acH3K9 expression,[2]; [22],0.86 ± 0.03
same,acH4K5 expression,[2]; [22],0.45 ± 0.06
same,acH4K8 expression,[2]; [22],0.86 ± 0.06
same,acH4K12 expression,[2]; [22],0.80 ± 0.03
same,acH4K16 expression,[2]; [22],0.70 ± 0.06
same,H4 expression,"[2]; SFR Balb/c, fluoxetine alone or with SAHA, OD on Western blots normalized to GAPDH, mean ± sem, n = 5",1.10 ± 0.04
same,effect on histone H3/H4 expression,"[2]; SFR mice, adolescent fluoxetine 16 mg/kg/day vs vehicle, FIG. 7",does not alter
same,H3K4me3 expression,[6],0.94 ± 0.02
same,H3K9me2 expression,[6],0.89 ± 0.03
same,H3 expression,[6],0.98 ± 0.02
same,acH3K9 expression,[6],1.00 ± 0.03
same,H4 expression,[6]; n = 5,1.00 ± 0.03
same,time spent in the open arms of the EPM,SFR Balb/c mice [4],did not differ
same,immobility in the FST,SFR Balb/c mice [5],did not differ
same,"immobility in the forced swim test (FST), antidepressant-like effects","SFR Balb/c mice [5]; non-stressed Balb/c treated P35 to P59, vs vehicle and fluoxetine-only, FIG. 15A",not achieved
same,enrichment of aCH4K12 at BDNF promotor P1,[7],higher enrichment
same,enrichment of aCH4K12 at BDNF promotor P3,[7],higher enrichment
same,increase of density of Pol II associated with the P3 promotor of the BDNF gene,[8],not in fluoxetine-only treated mice
same,FST behavior of SFR controls,SFR Balb/c mice [9],had no effect
same,effect on HDAC mRNA expression levels,"HDAC mRNA; IMS Balb/c, treatment P35 to P60, nine HDAC mRNAs",did not alter
same,"HDAC1 mRNA expression, real-time PCR ½^ΔCt",HDAC mRNA; [23],0.011±0.0006
same,"HDAC2 mRNA expression, real-time PCR ½^ΔCt",HDAC mRNA; [23],0.0016±0.0001
same,"HDAC3 mRNA expression, real-time PCR ½^ΔCt",HDAC mRNA; [23],0.055±0.004
same,"HDAC4 mRNA expression, real-time PCR ½^ΔCt",HDAC mRNA; [23],0.011±0.002
same,"HDAC5 mRNA expression, real-time PCR ½^ΔCt",HDAC mRNA; [23],0.044±0.006
same,"HDAC7 mRNA expression, real-time PCR ½^ΔCt",HDAC mRNA; [23],0.011±0.001
same,"HDAC8 mRNA expression, real-time PCR ½^ΔCt",HDAC mRNA; [23],0.0035±0.0004
same,"HDAC9 mRNA expression, real-time PCR ½^ΔCt",HDAC mRNA; [23],0.001±0.0002
same,"HDAC10 mRNA expression, real-time PCR ½^ΔCt",HDAC mRNA; [23],0.0074±0.0006
CCCC(=O)[O-].[Na+] [sodium butyrate],IC50,HDAC3 [10],700 µM
Cn1c(=O)c2[nH]cnc2n(C)c1=O [theophylline],time spent in the open arms of the EPM,SFR Balb/c mice [4],did not differ
same,immobility in the FST,SFR Balb/c mice [5],did not differ
same,activation of HDAC1,HDAC1,activates
same,activation of HDAC3,HDAC3 [11],activates
same,antagonist effect on adenosine receptors,adenosine receptors,no antagonist effect
same,inhibition of phosphodiesterases,phosphodiesterases,exerts no
same,total immobility time in the FST,"IMS Balb/c mice [12]; IMS Balb/c treated P35 to P60, greater immobility of IMS mice",significantly potentiated
same,number of passive episodes in the FST,"IMS Balb/c mice [12]; SFR controls, IMS and treated IMS mice",no significant differences
same,total time spent in open arms of the EPM,"IMS Balb/c mice [13]; IMS Balb/c treated P35 to P60, vs non-treated IMS mice",significantly less time
same,total number of arm crossings in the EPM,"IMS Balb/c mice [13]; SFR controls, IMS and treated IMS Balb/c",no significant difference
same,percentages of crossings into open arms,IMS Balb/c mice [13]; treated IMS Balb/c compared with SFR controls,did not reach statistical significance
same,plasma concentrations of theophylline,[14],below 10^−4 M
CN1c2ccccc2C(NCCCCCCC(=O)O)c2ccc(Cl)cc2S1(=O)=O (centres unmarked) [tianeptine],extracellular 5-HT levels,[15],without marked changes
